Results published in the supplement of paper PMC11061612.

How the values were obtained:
Experiment in all cases: Bliss excess, mean over the matrix (fraction); higher = more synergy
CS1 (Chondrosarcoma) = system: CS1 (Chondrosarcoma)
Summary of the method: (§1)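 After 24 hours at 37°C and 5% CO2 in 1536-well plates, cells in DMEM/F12 or RPMI plus 10% FBS received two-drug dose matrices for 72 hours. Viability came from CellTiter-Glo 2.0 luminescence and was scaled as inhibition, anchored at 0 by vehicle wells and at 1 by blank wells. Combination Emax is taken as the second-highest inhibition in the matrix, and Bliss excess as the observed combination effect less EA + EB − EA·EB, with EA and EB the single-agent effects.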

[1] = system: D-283MED (Other Solid Carcinomas)
Summary of the method: as §1

[2] = system: EFM-192A (Breast Carcinoma)
Summary of the method: as §1

[3] = system: EKVX (Non-Small Cell Lung Carcinoma)
Summary of the method: as §1

[4] = system: ETK-1 (Biliary Tract Carcinoma)
Summary of the method: as §1

HCC38 (Breast Carcinoma) = system: HCC38 (Breast Carcinoma)
Summary of the method: as §1

[5] = system: HOP-92 (Non-Small Cell Lung Carcinoma)
Summary of the method: as §1

HuO9 (Osteosarcoma) = system: HuO9 (Osteosarcoma)
Summary of the method: as §1

[6] = system: JHH-6 (Hepatocellular Carcinoma)
Summary of the method: as §1

[7] = system: KG-1 (Acute Myeloid Leukemia)
Summary of the method: as §1

MCF7 (Breast Carcinoma) = system: MCF7 (Breast Carcinoma)
Summary of the method: as §1

[8] = system: MEG-01 (Chronic Myelogenous Leukemia)
Summary of the method: as §1

[9] = system: MES-SA (Other Solid Carcinomas)
Summary of the method: as §1

MSTO-211H (Mesothelioma) = system: MSTO-211H (Mesothelioma)
Summary of the method: as §1

[10] = system: NCI-H1688 (Small Cell Lung Carcinoma)
Summary of the method: as §1

[11] = system: NOMO-1 (Acute Myeloid Leukemia)
Summary of the method: as §1

[12] = system: PA-TU-8902 (Pancreatic Carcinoma)
Summary of the method: as §1

[13] = system: SK-LMS-1 (Other Solid Carcinomas)
Summary of the method: as §1

SK-MEL-1 (Melanoma) = system: SK-MEL-1 (Melanoma)
Summary of the method: as §1

[14] = system: SNG-M (Endometrial Carcinoma)
Summary of the method: as §1

Compound `CC1(C)CCC(CN2CCN(c3ccc(C(=O)NS(=O)(=O)c4ccc(NCC5CCOCC5)c([N+](=O)[O-])c4)c(Oc4cnc5[nH]ccc5c4)c3)CC2)=C(c2ccc(Cl)cc2)C1` [Venetoclax] + C[C@@H](Nc1cc(F)cc(F)c1)c1cc(C(=O)N(C)C)cc2c(=O)cc(N3CCOCC3)oc12 [AZD8186] (first compound max 1 µM, 7x7, partner max 3 µM) has a Bliss excess (CS1 (Chondrosarcoma)) of -0.0923, a Bliss excess [1] of -0.0149 and a Bliss excess [2] of -0.0501. It also gave a Bliss excess [3] of 0.0566, a Bliss excess [4] of -0.0284 and a Bliss excess (HCC38 (Breast Carcinoma)) of -0.0075. The Bliss excess [5] was -0.0212, the Bliss excess (HuO9 (Osteosarcoma)) was 0.0776 and the Bliss excess [6] was -0.0135. For the same compound, the Bliss excess [7] was 0.114, the Bliss excess (MCF7 (Breast Carcinoma)) was -0.0499 and the Bliss excess [8] was -0.0492. It also gave a Bliss excess [9] of -0.0299, a Bliss excess (MSTO-211H (Mesothelioma)) of -0.0052 and a Bliss excess [10] of -0.0385. For the same compound, the Bliss excess [11] was 0.0654, the Bliss excess [12] was -0.0453 and the Bliss excess [13] was -0.014. The Bliss excess (SK-MEL-1 (Melanoma)) was -0.0239 and the Bliss excess [14] was -0.0551.

Compound `COc1cccc(OCCCN)c1-c1cc(Nc2cnc(C#N)cn2)n[nH]1` [Prexasertib] + O=C(c1cc(Cc2n[nH]c(=O)c3ccccc23)ccc1F)N1CCN(C(=O)C2CC2)CC1 [Olaparib] (first compound max 1 µM, 7x7, partner max 10 µM) has a Bliss excess (CS1 (Chondrosarcoma)) of -0.0635, a Bliss excess [1] of -0.0232 and a Bliss excess [2] of -0.0365. The Bliss excess [3] was -0.0217, the Bliss excess [4] was 0.0573 and the Bliss excess (HCC38 (Breast Carcinoma)) was -0.0641. The Bliss excess [5] was -0.0692, the Bliss excess (HuO9 (Osteosarcoma)) was 0.0553 and the Bliss excess [6] was 0.0128. It also gave a Bliss excess [7] of -0.0343, a Bliss excess (MCF7 (Breast Carcinoma)) of -0.0236 and a Bliss excess [8] of -0.0981. It also gave a Bliss excess [9] of -0.0561, a Bliss excess (MSTO-211H (Mesothelioma)) of -0.0597 and a Bliss excess [10] of -0.0135. The Bliss excess [11] was -0.027, the Bliss excess [12] was -0.0783 and the Bliss excess [13] was -0.0676. For the same compound, the Bliss excess (SK-MEL-1 (Melanoma)) was -0.0435 and the Bliss excess [14] was -0.124.

With `Cc1c2c(nn1C)CSCc1cc(n(C)n1)CSc1cc(c3ccccc3c1)OCCCc1c(C(=O)O)n(C)c3c-2c(Cl)ccc13` [AZD5991] + CC1(C)CCC(CN2CCN(c3ccc(C(=O)NS(=O)(=O)c4ccc(NCC5CCOCC5)c([N+](=O)[O-])c4)c(Oc4cnc5[nH]ccc5c4)c3)CC2)=C(c2ccc(Cl)cc2)C1 [Venetoclax] (first compound max 1 µM, 7x7, partner max 1 µM) the Bliss excess (CS1 (Chondrosarcoma)) was -0.0418, the Bliss excess [1] was 0.0701 and the Bliss excess [2] was 0.0257. It also gave a Bliss excess [3] of -0.0423, a Bliss excess [4] of -0.0526 and a Bliss excess (HCC38 (Breast Carcinoma)) of -0.0307. The Bliss excess [5] was 0.0247, the Bliss excess (HuO9 (Osteosarcoma)) was 0.0182 and the Bliss excess [6] was -0.0417. For the same compound, the Bliss excess [7] was 0.119, the Bliss excess (MCF7 (Breast Carcinoma)) was 0.0623 and the Bliss excess [8] was 0.105. The Bliss excess [9] was -0.0068, the Bliss excess (MSTO-211H (Mesothelioma)) was -0.0455 and the Bliss excess [10] was 0.105. The Bliss excess [11] was 0.256, the Bliss excess [12] was -0.0595 and the Bliss excess [13] was -0.0422. It also gave a Bliss excess (SK-MEL-1 (Melanoma)) of -0.0536 and a Bliss excess [14] of -0.027.

For `COc1cccc(OCCCN)c1-c1cc(Nc2cnc(C#N)cn2)n[nH]1` [Prexasertib] + CN(C)CCCOc1ccc(-c2ccc3ncc4c(c3c2)n(C2CCOCC2)c(=O)n4C)cn1 [AZD0156] (first compound max 1 µM, 7x7, partner max 1 µM), the Bliss excess (CS1 (Chondrosarcoma)) was -0.0324, the Bliss excess [1] was 0.0116 and the Bliss excess [2] was 0.0078. For the same compound, the Bliss excess [3] was -0.0039, the Bliss excess [4] was 0.0229 and the Bliss excess (HCC38 (Breast Carcinoma)) was -0.0482. The Bliss excess [5] was 0.0056, the Bliss excess (HuO9 (Osteosarcoma)) was -0.0958 and the Bliss excess [6] was 0.0349. It also gave a Bliss excess [7] of -0.0289, a Bliss excess (MCF7 (Breast Carcinoma)) of 0.149 and a Bliss excess [8] of -0.0411. The Bliss excess [9] was 0.0641, the Bliss excess (MSTO-211H (Mesothelioma)) was -0.0164 and the Bliss excess [10] was 0.016. The Bliss excess [11] was -0.0154, the Bliss excess [12] was 0.0068 and the Bliss excess [13] was -0.02. The Bliss excess (SK-MEL-1 (Melanoma)) was -0.0194 and the Bliss excess [14] was 0.0305.

Work on `C=CCn1c(=O)c2cnc(Nc3ccc(N4CCN(C)CC4)cc3)nc2n1-c1cccc(C(C)(C)O)n1` [AZD1775] + O=C(c1cc(Cc2n[nH]c(=O)c3ccccc23)ccc1F)N1CCN(C(=O)C2CC2)CC1 [Olaparib] (first compound max 1 µM, partner max 10 µM) yielded a Bliss excess (CS1 (Chondrosarcoma)) of 0.0057, a Bliss excess [1] of 0.0079 and a Bliss excess [2] of -0.0307. The Bliss excess [3] was -0.0564, the Bliss excess [4] was -0.0292 and the Bliss excess (HCC38 (Breast Carcinoma)) was -0.068. For the same compound, the Bliss excess [5] was -0.0181, the Bliss excess (HuO9 (Osteosarcoma)) was 0.0102 and the Bliss excess [6] was 0.02. It also gave a Bliss excess [7] of -0.0195, a Bliss excess (MCF7 (Breast Carcinoma)) of 0.003 and a Bliss excess [8] of -0.0188. The Bliss excess [9] was -0.0694, the Bliss excess (MSTO-211H (Mesothelioma)) was -0.0203 and the Bliss excess [10] was -0.0142. It also gave a Bliss excess [11] of -0.027, a Bliss excess [12] of -0.0327 and a Bliss excess [13] of 0.0065. The Bliss excess (SK-MEL-1 (Melanoma)) was -0.0054 and the Bliss excess [14] was -0.0105.

Compound `Cc1cc2ncnn2cc1Nc1ncc2c(n1)n(C1CCOCC1)c(=O)n2C` [AZD7648] + CCN(CCO)CCCOc1ccc2c(Nc3cc(CC(=O)Nc4cccc(F)c4)[nH]n3)ncnc2c1 [AZD2811] (first compound max 10 µM, 7x7, partner max 1 µM) has a Bliss excess (CS1 (Chondrosarcoma)) of -0.0403, a Bliss excess [1] of 0.0609 and a Bliss excess [2] of -0.0175. The Bliss excess [3] was -0.0199, the Bliss excess [4] was -0.0025 and the Bliss excess (HCC38 (Breast Carcinoma)) was -0.0383. It also gave a Bliss excess [5] of -0.0038, a Bliss excess (HuO9 (Osteosarcoma)) of 0.051 and a Bliss excess [6] of 0.0238. It also gave a Bliss excess [7] of 0.0351, a Bliss excess (MCF7 (Breast Carcinoma)) of -0.0135 and a Bliss excess [8] of -0.0233. The Bliss excess [9] was 0.0834, the Bliss excess (MSTO-211H (Mesothelioma)) was 0.0509 and the Bliss excess [10] was 0.0154. It also gave a Bliss excess [11] of 0.131, a Bliss excess [12] of 0.0315 and a Bliss excess [13] of -0.0162. It also gave a Bliss excess (SK-MEL-1 (Melanoma)) of -0.0162 and a Bliss excess [14] of 0.0507.

Compound `Cc1c2c(nn1C)CSCc1cc(n(C)n1)CSc1cc(c3ccccc3c1)OCCCc1c(C(=O)O)n(C)c3c-2c(Cl)ccc13` [AZD5991] + CCN(CCO)CCCOc1ccc2c(Nc3cc(CC(=O)Nc4cccc(F)c4)[nH]n3)ncnc2c1 [AZD2811] (first compound max 1 µM, 7x7, partner max 1 µM) has a Bliss excess (CS1 (Chondrosarcoma)) of -0.044, a Bliss excess [1] of 0.051 and a Bliss excess [2] of 0.0012. The Bliss excess [3] was -0.0356, the Bliss excess [4] was -0.0018 and the Bliss excess (HCC38 (Breast Carcinoma)) was 0.058. It also gave a Bliss excess [5] of 0.0184, a Bliss excess (HuO9 (Osteosarcoma)) of -0.0035 and a Bliss excess [6] of -0.0298. It also gave a Bliss excess [7] of 0.032, a Bliss excess (MCF7 (Breast Carcinoma)) of 0.0081 and a Bliss excess [8] of 0.002. For the same compound, the Bliss excess [9] was 0.138, the Bliss excess (MSTO-211H (Mesothelioma)) was 0.0477 and the Bliss excess [10] was 0.0059. It also gave a Bliss excess [11] of 0.0894, a Bliss excess [12] of -0.0356 and a Bliss excess [13] of -0.0538. The Bliss excess (SK-MEL-1 (Melanoma)) was -0.0194 and the Bliss excess [14] was 0.0446.
